Source: paper PMC10054553, “Development of the First ^18F-Labeled Radiohybrid-Based Minigastrin Derivative with High Target Affinity and Tumor Accumulation by Substitution of the Chelating Moiety” (Pharmaceutics, 2023)

How the values were obtained:
[1] = Lipophilicity (logD7.4), n-octanol/PBS pH 7.4; assay type: physicochemical; conditions: n-octanol/PBS pH 7.4; read-out: logD7.4
Description: Cell-based experiments and determination of lipophilicity (logD7.4) were performed as previously published. A detailed description of the in vitro experiments is provided in the Supplementary Materials.
Cell Culture. CCK-2R-expressing rat pancreatic cancer cells AR42J (CLS GmbH, Eppelheim, Germany) were cultivated in monolayers in CELLSTAR® cell culture flasks acquired from Greiner Bio-One GmbH (Frickenhausen, Germany) at 37°C in a humidified atmosphere (5% CO2) using a HERAcell 150i-Incubator (Thermo Fisher Scientific Inc., Waltham, United States). The nutrient medium RPMI 1640 medium, supplemented with 5 mM L-Gln 5 mL non-essential amino acids (100×) and 10% FCS, was used. Furthermore, a Dulbecco’s PBS solution with 0.1% EDTA (v/v) was applied to detach the cells for cell passaging. The detached cells were counted using a Neubauer hemocytometer (Paul Marienfeld, Lauda-Königshofen, Germany). In addition, all operations under sterile conditions were accomplished using a MSC-Advantage safety workbench (Thermo Fisher Scientific Inc., Waltham, United States).
Determination of IC50. AR42J cells (2.0 × 10^5 cells/well) were seeded into 24-well plates 24 ± 2 h prior to testing using 1 mL of nutrient medium (RPMI 1640, 5 mM L-Gln, 5 mL non-essential amino acids (100×), 10% FCS). Cells were incubated at 37°C in a humidified atmosphere (5% CO2).
After the removal of the medium, each well was washed with 500 μL PBS. For the cell-based assay, 200 μL of the nutrient medium (+5% BSA), [ 177Lu]Lu-DOTA-PP-F11N (25 μL, 0.3 pmol) as a radiolabeled reference and 25 μL of the peptide of interest in increasing concentrations (10 −10 to 10−4 M) were added to the cells in triplicate. Thereafter, the assay was incubated for 3 h at 37°C and the supernatant was collected. The cells were washed with 300 μL PBS and the collected supernatant fractions were unified.
After lysis of the cells with NaOH (300 μL, 1 N) for 15 min, the respective wells were washed with NaOH (300 μ L, 1 N) and both fractions were unified. The radioactivity of both the supernatant and the lysed fractions were quantified using a γ-counter (PerkinElmer Inc., Waltham, United States). The obtained data were evaluated via the GraphPad PRISM software (GraphPad Software Inc., La Jolla, United States), which calculates the half-maximal inhibitory concentration (IC50) of the peptides.
Internalization Studies. For the determination of the internalization kinetics of the various peptides, AR42J cells (3.0 × 10^5 cells/well) were seeded into polylysine-coated 24-well plates, adding 1 mL of nutrient medium. Afterwards, the cells were incubated for 24 ± 2 h at 37°C in a humidified atmosphere […]
On the day of the experiment, the medium was removed, and each well was washed with nutrient medium (300 μL). Afterwards 200 μL of nutrient medium, 25 μL of the 177Lu-labeled peptide (0.3 pmol, n = 6) and either 25 μL of nutrient medium for internalization studies ( n = 3) or 25 μL of [natLu]Lu-DOTA-PP-F11N (10 μmol) for competition studies ( n = 3) were added. Thereafter, the assay was incubated for various time points (1, 2, 4 and 6 h) at 37°C in a humidified atmosphere (5% CO2). After incubation, the cells were put on ice for at least 1 min to stop internalization kinetics and the supernatant was collected. Then, the cells were washed with an ice-cold nutrient medium (300 μL) and both fractions were unified. […] The radioactivity of the supernatant, the acid wash and the lysed fractions were quantified using a γ-counter. […]

CCK-2R = target: T1, CCK-2R (Rattus norvegicus, UniProt P30553); design: method as in earlier work; conditions: % of applied activity, 37 °C, AR42J cells, identical conditions, cited from earlier work
T1 construct: CCK-2R-expressing rat pancreatic cancer cells AR42J; host or cells: AR42J (rat pancreatic cancer cells)
T1 sequence (P30553 1-452): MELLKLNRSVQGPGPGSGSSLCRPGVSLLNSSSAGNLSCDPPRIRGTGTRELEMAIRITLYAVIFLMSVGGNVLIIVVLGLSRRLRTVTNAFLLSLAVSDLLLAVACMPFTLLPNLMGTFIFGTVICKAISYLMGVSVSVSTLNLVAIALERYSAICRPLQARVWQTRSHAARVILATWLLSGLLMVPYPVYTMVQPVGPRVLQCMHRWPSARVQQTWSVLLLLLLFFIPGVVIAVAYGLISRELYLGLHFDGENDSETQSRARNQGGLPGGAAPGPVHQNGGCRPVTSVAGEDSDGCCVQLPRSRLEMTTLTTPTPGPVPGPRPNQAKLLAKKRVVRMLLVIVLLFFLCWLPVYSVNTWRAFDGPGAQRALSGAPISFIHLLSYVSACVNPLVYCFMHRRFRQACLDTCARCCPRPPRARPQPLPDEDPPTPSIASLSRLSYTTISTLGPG

[2] = tested on: AR42J tumor-bearing CB17-SCID mice; conditions: 24 h p.i., 100 pmol; cited from earlier work

Compound: CCCC[C@H](NC(=O)[C@H](Cc1c[nH]c2ccccc12)NC(=O)CNC(=O)[C@H](Cc1ccc(O)cc1)NC(=O)[C@H](C)NC(=O)[C@@H](CCC(=O)O)NC(=O)[C@@H](CCC(=O)O)NC(=O)[C@@H](CCC(=O)O)NC(=O)[C@@H](CCC(=O)O)NC(=O)[C@@H](CCC(=O)O)NC(=O)[C@@H](CCC(=O)O)NC(=O)CN1CCN(CC(=O)O)CCN(CC(=O)O)CCN(CC(=O)O)CC1)C(=O)N[C@@H](CC(=O)O)C(=O)N[C@@H](Cc1ccccc1)C(N)=O [[^177Lu]Lu-DOTA-PP-F11N, metal not drawn]
- logD [1]: < -4
- Internalization Values (%) 1 h (CCK-2R; 1 h): 6.44 ± 0.32%
- Internalization Values (%) 2 h (CCK-2R; 2 h): 10.1 ± 0.4%
- Internalization Values (%) 4 h (CCK-2R; 4 h): 17.5 ± 1.0%
- Internalization Values (%) 6 h (CCK-2R; 6 h): 22.4 ± 0.6%
- activity uptake in the tumor [2]: 1.9 ± 0.8 %ID/g
